What is called melting point is the temperature, or range, at which the solid turns liquid.

In turn, `COc1ccc(C(CC(=O)O)N2C(=O)c3ccccc3C2=O)cc1OC1CCCC1` (centres unmarked) [Example 2, 3-Phthalimido-3-(3-cyclopentyloxy-4-methoxyphenyl)propionic Acid] had a melting point of 159 to 162 °C. To `COC(=O)CC(c1ccc(OC)c(OC2CCCC2)c1)N1C(=O)c2ccccc2C1=O` (centres unmarked) [Example 5, Methyl 3-phthalimido-3-(3-cyclopentyloxy-4-methoxyphenyl)propionate] belongs 76 to 78 °C.

The record behind these values is patent US7081464B2, “Topical compositions of cyclic amides as immunotherapeutic agents” (Celgene Corporation, priority 1995, dated 2006).
